Values quoted from earlier work as cited in patent publication US20200188436A1, “Compositions and Methods for Cancer Immunotherapy” (The UAB Research Foundation, priority 2016, published 2020).

Columns and labels:
[1] = test system: diffuse large B-cell lymphoma (DLBCL); conditions: phase II, DLBCL after autologous stem cell transplantation; preliminary results
recurrent multifocal GBM = conditions: two pediatric patients, refractory to standard therapies, single agent

CT-011: humanized IgG1 monoclonal antibody against PD-1
subjects alive [1]: 82% | subjects progression-free at the end of the follow-up period [1]: 70%

nivolumab: immune checkpoint inhibitor, anti-PD1 antibody
clinical response (recurrent multifocal GBM): remarkable and durable responses
